Legend:
CDK1/cyclin B (CDK1B) = CDK1/cyclin B (CDK1B) (Homo sapiens, UniProt P06493); test: ADP-Glo kinase assay, CDK1/cyclin B; format: biochemical; settings: for inhibition at 1 µM: read-out: % Enzymatic Inhibition at 1 µM CDK1B; for Ki: apparent Ki from IC50, ADP-Glo
Experimental: (§1) The luminescent ADP-Glo™ assay, which measures the amount of ADP formed in a kinase reaction as described previously, was used to determine the kinase inhibition profile of the compounds. […] Ki values were calculated from their corresponding IC50 values (the concentrations of inhibitors that inhibit the kinase activity by 50%) and the Michaelis–Menten constant (Km) of ATP for each kinase using the Cheng–Prusoff equation as previously stated. In brief, 1 μL of each concentration of the test compounds was added to the respective wells, and to it were added 1 μL of the kinases and their respective substrates, diluted to the desired concentration in kinase reaction buffer ([…] tris base pH 7.5, 20 mM MgCl2, 0.4 µM dithiothreitol, and 0.1 mg/mL bovine serum albumin), and the pH was adjusted by adding 1 μL of a two-fold diluted kinase reaction buffer. To initiate the kinase activity, 1 μL of ATP solution (the concentration varies depending on the type of kinase under investigation) was added to each well, and the mixture was incubated at room temperature (20 to 22 °C) for 30–60 min depending on the kinase being tested. The reaction was then halted, 5 μL of the ADP-Glo reagent was added to each well (removing any unreacted ATP), and it was incubated at room temperature for 40 min. Then, to each well, 10 μL of the kinase detection reagent containing luciferin was added, which was incubated once more at room temperature in the dark for 30 min and the luminescence was measured by an EnVision® multi-label plate reader with an integration time of 1.5 s per well. Positive controls (the wells without the inhibitor) and negative or blank controls (the wells without the inhibitor and the enzyme, but with 1 × kinase reaction buffer) were also determined in 2.5% DMSO.
(§2) The percentage of kinase inhibition was determined using the following equation: % Residual kinase activity=Luminescence in the presence of inhibitor−Luminescence of blank control/Luminescence in the absence of inhibitor−Luminescence of blank control×100%%kinase inhbition=100%−%Residual kinase activity
(§3) Km is defined as the concentration of ATP or the substrate required to produce 50% of the maximal reaction rate in the kinase reaction. Therefore, since we used the concentration of ATP and the substrate at their Km values, Ki simply equals IC50/2 assuming these inhibitors are ATP-competitive based on the Cheng–Prusoff equation: Ki = IC50/(1 + ([ATP]/Km(ATP))) where [ATP] is the ATP concentration used for the IC50 determination and Km(ATP) for each kinase was determined experimentally.

CDK2/cyclin E (CDK2E) = CDK2/cyclin E (CDK2E) (Homo sapiens, UniProt P24941); test: ADP-Glo kinase assay, CDK2/cyclin E; format: biochemical; settings: for Ki: apparent Ki from IC50, ADP-Glo; for inhibition at 1 µM: read-out: % Enzymatic Inhibition at 1 µM CDK2E
Experimental: as §1, §2, §3

CDK5/p25 (CDK5p25) = CDK5/p25 (CDK5p25) (Homo sapiens, UniProt Q00535); test: ADP-Glo kinase assay, CDK5/p25; format: biochemical; settings: for Ki: apparent Ki from IC50, ADP-Glo; for inhibition at 1 µM: read-out: % Enzymatic Inhibition at 1 µM CDK5p25
Chain of CDK5/p25 (CDK5p25) (Q00535 whole entry): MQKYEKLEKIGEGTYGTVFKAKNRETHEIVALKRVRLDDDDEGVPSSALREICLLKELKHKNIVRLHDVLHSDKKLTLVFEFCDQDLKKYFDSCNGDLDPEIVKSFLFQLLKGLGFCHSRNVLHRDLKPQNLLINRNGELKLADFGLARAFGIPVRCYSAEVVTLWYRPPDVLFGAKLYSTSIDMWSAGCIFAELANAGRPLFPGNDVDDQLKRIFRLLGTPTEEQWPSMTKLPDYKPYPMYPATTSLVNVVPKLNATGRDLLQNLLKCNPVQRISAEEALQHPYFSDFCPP
Chain of CDK5/p25 (CDK5p25) (Q15078 99-307 partner limits assumed): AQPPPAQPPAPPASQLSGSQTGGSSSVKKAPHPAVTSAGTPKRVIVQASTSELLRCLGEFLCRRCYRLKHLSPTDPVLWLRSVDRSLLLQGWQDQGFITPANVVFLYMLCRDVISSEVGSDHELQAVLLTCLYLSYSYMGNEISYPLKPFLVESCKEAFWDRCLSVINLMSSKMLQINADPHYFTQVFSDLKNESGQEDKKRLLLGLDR
Experimental: as §1, with “Then, to each well, 10 μL of the kinase detection reagent containing luciferin was added, which was incubated once more at room temperature in the dark for 30 min and the luminescence was measured by an EnVision® multi-label plate reader with an integration time of 1.5 s per well.” left out
as §2, §3

CDK9/cyclin T1 (CDK9T1) = CDK9/cyclin T1 (CDK9T1) (Homo sapiens, UniProt P50750); test: ADP-Glo kinase assay, CDK9/cyclin T1; format: biochemical; settings: for inhibition at 1 µM: read-out: % Enzymatic Inhibition at 1 µM CDK9T1; for Ki: apparent Ki from IC50, ADP-Glo
Chain of CDK9/cyclin T1 (CDK9T1) (P50750 whole entry): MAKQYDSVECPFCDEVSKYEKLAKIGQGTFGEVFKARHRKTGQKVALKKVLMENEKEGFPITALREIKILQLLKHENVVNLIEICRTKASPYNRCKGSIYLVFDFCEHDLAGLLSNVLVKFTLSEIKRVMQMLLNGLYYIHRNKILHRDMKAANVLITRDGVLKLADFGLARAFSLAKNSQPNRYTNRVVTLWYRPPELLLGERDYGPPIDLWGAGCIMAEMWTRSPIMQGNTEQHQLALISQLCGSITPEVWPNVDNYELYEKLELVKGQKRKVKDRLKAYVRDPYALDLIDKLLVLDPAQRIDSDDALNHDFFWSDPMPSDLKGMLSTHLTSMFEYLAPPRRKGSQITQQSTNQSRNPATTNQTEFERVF
Chain of CDK9/cyclin T1 (CDK9T1) (O60563 whole entry partner): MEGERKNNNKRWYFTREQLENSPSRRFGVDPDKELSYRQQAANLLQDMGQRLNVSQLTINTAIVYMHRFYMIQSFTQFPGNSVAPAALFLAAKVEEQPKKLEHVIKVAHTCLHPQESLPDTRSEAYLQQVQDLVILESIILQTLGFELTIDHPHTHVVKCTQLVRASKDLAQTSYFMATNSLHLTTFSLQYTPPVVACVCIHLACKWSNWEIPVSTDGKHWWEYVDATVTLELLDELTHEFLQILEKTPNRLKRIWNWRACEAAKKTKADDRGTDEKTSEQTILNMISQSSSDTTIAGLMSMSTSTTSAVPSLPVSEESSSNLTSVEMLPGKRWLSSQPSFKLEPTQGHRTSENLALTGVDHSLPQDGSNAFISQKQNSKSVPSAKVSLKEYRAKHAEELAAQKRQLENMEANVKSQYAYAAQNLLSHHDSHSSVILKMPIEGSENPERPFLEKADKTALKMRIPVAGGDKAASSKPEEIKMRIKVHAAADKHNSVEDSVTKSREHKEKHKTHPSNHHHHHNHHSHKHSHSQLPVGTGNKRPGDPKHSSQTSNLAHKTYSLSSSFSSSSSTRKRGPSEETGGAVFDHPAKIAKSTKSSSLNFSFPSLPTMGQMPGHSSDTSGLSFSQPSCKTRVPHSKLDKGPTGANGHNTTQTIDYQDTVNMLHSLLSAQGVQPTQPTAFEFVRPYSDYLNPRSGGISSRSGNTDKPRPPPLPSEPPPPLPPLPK
Experimental: as §1, with “Then, to each well, 10 μL of the kinase detection reagent containing luciferin was added, which was incubated once more at room temperature in the dark for 30 min and the luminescence was measured by an EnVision® multi-label plate reader with an integration time of 1.5 s per well.” left out
as §2, §3

[1] = system: A2780 ovarian cancer cells; test: 72 h MTT antiproliferative assay, A2780; format: cell-based; settings: for inhibition at 1 µM / GI50: Homo sapiens, A2780, 72 h MTT; for inhibition at 1 µM: read-out: % Growth Inhibition (GI) at 1 µM A2780
Description: Cancer cell lines derived from leukemia (MV4-11 and U937), breast (MCF7 (Rb-positive) and MDA-MB-231(Rb-negative)), and ovarian (A2780, OVCAR5, OAW28, OV90, Cov318, and Cov504) cancers, and glioblastoma (U87, T98G and U251) were acquired from the cell bank at Drug Discovery and Development, University of South Australia, and cultured according to the American Type Culture Collection (ATCC) recommendation in Roswell Park Memorial Institute (RPMI)-1640, Dulbecco’s Modified Eagle’s Medium (DMEM), or Minimum Essential Media (MEM), with 10% fetal bovine serum (Sigma-Aldrich, Castle Hill, NSW, Australia) within a humidified incubator at 37 °C in the presence of 5% CO2.
The MTT (Life Technologies, Mulgrave, VIC, Australia) and resazurin (Sigma-Aldrich) assays were used to determine the antiproliferative activities of the compounds initially at 1 µM against the cancer cell lines stated above.

Chain of CDK1/cyclin B (CDK1B) (P06493 whole entry): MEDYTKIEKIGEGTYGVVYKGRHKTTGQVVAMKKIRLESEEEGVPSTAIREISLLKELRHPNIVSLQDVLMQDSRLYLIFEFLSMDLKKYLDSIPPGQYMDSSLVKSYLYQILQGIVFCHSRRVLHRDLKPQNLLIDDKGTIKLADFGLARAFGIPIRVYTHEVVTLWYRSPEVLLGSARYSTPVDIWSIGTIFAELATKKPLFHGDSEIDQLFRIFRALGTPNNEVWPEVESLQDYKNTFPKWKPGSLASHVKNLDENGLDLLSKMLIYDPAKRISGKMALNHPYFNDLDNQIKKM
Chain of CDK1/cyclin B (CDK1B) (P14635 whole entry partner): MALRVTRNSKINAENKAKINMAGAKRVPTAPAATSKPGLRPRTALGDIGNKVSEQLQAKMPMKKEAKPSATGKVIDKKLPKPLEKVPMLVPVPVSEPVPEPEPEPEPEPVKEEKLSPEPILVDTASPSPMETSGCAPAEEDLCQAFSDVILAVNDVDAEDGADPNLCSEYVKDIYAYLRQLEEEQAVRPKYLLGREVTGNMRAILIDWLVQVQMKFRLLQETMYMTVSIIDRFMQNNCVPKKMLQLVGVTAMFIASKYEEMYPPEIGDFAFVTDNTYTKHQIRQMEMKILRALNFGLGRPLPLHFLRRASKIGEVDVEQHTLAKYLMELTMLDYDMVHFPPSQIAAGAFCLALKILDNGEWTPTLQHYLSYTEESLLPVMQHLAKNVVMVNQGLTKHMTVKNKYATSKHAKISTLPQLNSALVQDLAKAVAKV

Row | Structure (SMILES) | inhibition at 1 µM (CDK1/cyclin B (CDK1B)) [%] | Ki (CDK2/cyclin E (CDK2E)) [nM] | Ki (CDK5/p25 (CDK5p25)) [nM] | inhibition at 1 µM (CDK9/cyclin T1 (CDK9T1)) [%] | inhibition at 1 µM [1] [%] | Ki (CDK1/cyclin B (CDK1B)) [nM] | Ki (CDK9/cyclin T1 (CDK9T1)) [nM] | inhibition at 1 µM (CDK2/cyclin E (CDK2E)) [%] | inhibition at 1 µM (CDK5/p25 (CDK5p25)) [%] | GI50 [1] [nM] | fold reduced CDK2 inhibition compared to 15 (CDK2/cyclin E (CDK2E); versus 15, Ki ratio) [fold] | fold less potent antiproliferative activity against A2780 than 15 ([1]; versus 15, GI50 ratio) [fold] | fold lower antiproliferative activity against A2780 compared to 1 ([1]; versus 1)
1 | Cn1cc(Nc2ncc(Cl)c(-c3cnn(CCN4CCOCC4)c3)n2)cn1 [Compound 32, 5-Chloro-N-(1-methyl-1H-pyrazol-4-yl)-4-(1-(2-morpholinoethyl)-1H-pyrazol-4-yl)pyrimidin-2-amine] | 36 | 252 | 126 | 21 | 3 | – | – | – | – | – | – | – | –
2 | Cn1cc(-c2nc(Nc3cnn(CC(N)=O)c3)ncc2Cl)cn1 [Compound 19, 2-(4-((5-Chloro-4-(1-methyl-1H-pyrazol-4-yl)pyrimidin-2-yl)amino)-1H-pyrazol-1-yl)acetamide] | – | 25 | 52 | – | 44 | 18 | 101 | – | – | – | – | – | –
3 | Cn1cc(-c2nc(Nc3nccs3)ncc2Cl)cn1 [Compound 25, N-(5-Chloro-4-(1-methyl-1H-pyrazol-4-yl)pyrimidin-2-yl)thiazol-2-amine] | 31 | – | 177 | 31 | 9 | – | – | 46 | – | – | – | – | –
4 | Cn1cc(Nc2ncc(F)c(-c3cnn(C)c3)n2)cn1 [Compound 16, 5-Fluoro-N,4-bis(1-methyl-1H-pyrazol-4-yl)pyrimidin-2-amine] | – | 23 | 18 | – | 9 | 92 | 98 | 97 | – | – | – | – | –
5 | Cn1cc(Nc2ncc(F)c(-c3ccnn3C)n2)cn1 [Compound 35, 5-Fluoro-N-(1-methyl-1H-pyrazol-4-yl)-4-(1-methyl-1H-pyrazol-5-yl)pyrimidin-2-amine] | 49 | – | – | 45 | 19 | – | – | 64 | 58 | – | – | – | –
6 | Cn1cc(Nc2ncc(Cl)c(-c3cnn(C)c3)n2)cn1 [Compound 17, 5-Chloro-N,4-bis(1-methyl-1H-pyrazol-4-yl)pyrimidin-2-amine] | – | 11 | – | – | 87 | 34 | – | – | – | 1020 | – | – | –
7 | Cn1cc(Nc2ncc(F)c(-c3cnn(CCN4CCOCC4)c3)n2)cn1 [Compound 31, 5-Fluoro-N-(1-methyl-1H-pyrazol-4-yl)-4-(1-(2-morpholinoethyl)-1H-pyrazol-4-yl)pyrimidin-2-amine] | 26 | – | – | 24 | 0 | – | – | 48 | 43 | – | – | – | –
8 | Cn1cc(-c2nc(Nc3ccn[nH]3)ncc2Cl)cn1 [Compound 23, 5-Chloro-4-(1-methyl-1H-pyrazol-4-yl)-N-(1H-pyrazol-5-yl)pyrimidin-2-amine] | 9 | 90 | 40 | 40 | – | – | – | – | – | 7350 | 18 | 47 | –
9 | Cn1cc(-c2nc(Nc3cnn(CC(N)=O)c3)ncc2F)cn1 [Compound 18, 2-(4-((5-Fluoro-4-(1-methyl-1H-pyrazol-4-yl)pyrimidin-2-yl)amino)-1H-pyrazol-1-yl)acetamide] | – | 85 | 193 | 68 | 0 | 112 | – | – | – | – | – | – | –
10 | Cc1nn(C)cc1-c1nc(Nc2cnn(C)c2)ncc1Cl [Compound 21, 5-Chloro-4-(1,3-dimethyl-1H-pyrazol-4-yl)-N-(1-methyl-1H-pyrazol-4-yl)pyrimidin-2-amine] | – | 23 | 35 | – | 8 | 225 | 62 | – | – | – | – | – | –
11 | Cc1nn(C)cc1-c1nc(Nc2cnn(C)c2)ncc1F [Compound 20, 4-(1,3-Dimethyl-1H-pyrazol-4-yl)-5-fluoro-N-(1-methyl-1H-pyrazol-4-yl)pyrimidin-2-amine] | – | 26 | 18 | – | 7 | 164 | 343 | – | – | – | – | – | –
12 | Cn1cc(-c2nc(Nc3cn[nH]c3)ncc2F)cn1 [Compound 14, 5-Fluoro-4-(1-methyl-1H-pyrazol-4-yl)-N-(1H-pyrazol-4-yl)pyrimidin-2-amine] | – | 7 | 3 | – | – | 18 | 16 | – | – | 498 | – | – | about 28 fold
